{"source": "patent US20230130225A1", "about": "“METHOD OF TREATING AMYOTROPHIC LATERAL SCLEROSIS WITH MYELOPEROXIDASE INHIBITOR” (Biohaven Therapeutics Ltd., priority 2020, published 2023)", "origin": "cited, not measured here", "key": {"[1]": {"details": "healthy subjects, multiple dosages of up to 900 mg BID"}, "[2]": {"details": "participants with Parkinson's disease and MSA, dosages of up to 600 mg BID for 8-12 weeks"}, "[3]": {"target": "T1, MPO (Homo sapiens, UniProt P05164)", "T1 construct": "from tissue; host or cells: plasma of clinical study participants", "T1 sequence (P05164 279-745 limits assumed)": "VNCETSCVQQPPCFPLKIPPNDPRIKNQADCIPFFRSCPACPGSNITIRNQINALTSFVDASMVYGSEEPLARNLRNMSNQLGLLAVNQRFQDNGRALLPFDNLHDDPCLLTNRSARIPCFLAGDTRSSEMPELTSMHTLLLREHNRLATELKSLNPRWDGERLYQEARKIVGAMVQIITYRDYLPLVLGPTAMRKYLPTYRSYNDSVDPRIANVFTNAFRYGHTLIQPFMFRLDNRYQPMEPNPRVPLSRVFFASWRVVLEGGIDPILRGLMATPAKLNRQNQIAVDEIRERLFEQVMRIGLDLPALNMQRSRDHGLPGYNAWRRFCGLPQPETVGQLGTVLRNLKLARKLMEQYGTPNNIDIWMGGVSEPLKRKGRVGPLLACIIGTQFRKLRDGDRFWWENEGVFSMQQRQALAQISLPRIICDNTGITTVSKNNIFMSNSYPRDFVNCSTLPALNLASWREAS", "T1 sequence (P05164 165-273 limits assumed)": "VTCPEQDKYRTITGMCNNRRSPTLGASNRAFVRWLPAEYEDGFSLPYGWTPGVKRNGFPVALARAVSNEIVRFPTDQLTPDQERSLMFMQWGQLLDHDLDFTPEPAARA", "details": "600 mg BID, Phase 2 studies"}, "[4]": {"system": "TSPO", "details": "600 mg BID, Phase 2 studies"}, "[5]": {"details": "subjects with MSA, 12 weeks, 600 mg BID"}}, "note": "Where two headings read alike, the source gives them in different places."}
{"smiles": "CC(C)OCCn1c(=S)[nH]c(=O)c2[nH]ccc21", "note": "[verdiperstat, 1-(2-isopropoxyethyl)-2-thioxo-1,2,3,5-tetrahydro-pyrrolo[3,2-d]pyrimidin-4-one]", "values": [{"measurement": "safety and tolerability", "setting": "[1]", "value": "generally safe and well tolerated"}, {"measurement": "safety and tolerability", "setting": "[2]", "value": "generally safe and well tolerated"}, {"measurement": "MPO activity in plasma", "setting": "[3]", "value": "decreased"}, {"measurement": "TSPO binding on brain PET imaging (microglial activation/neuroinflammation)", "setting": "[4]", "value": "reduced"}, {"measurement": "trends on clinical efficacy measures", "setting": "[5]", "value": "favorable, dose-dependent trends"}]}
